Laboratory results published in patent publication US20210038559A1, “CANNABINOIDS AND DERIVATIVES FOR PROMOTING IMMUNOGENICITY OF TUMOR AND INFECTED CELLS” (priority 2018, published 2021).
Counter-ions that a name gives are not always drawn.

Tested on: MHC-I expression by COLO 205 cells
Assay: cells
Format: cell-based, human
Details: not given
Description: A panel of synthetic cannabinoids (Cayman Chemical, #9002891) was tested for MHC class I-inducing capability in COLO 205 cells as described above. COLO 205 cells were treated with the compounds at a concentration of 35 μM and evaluated for cell surface MHC class I expression after 48 hours. Cells were harvested, stained with MHC-I mAb W6/32 (Thermo Fisher). MHC-I expression was determined by flow cytometry.

Compound	Induction Fold
(1-ethyl-1H-indol-3-yl)-1-naphthalenyl-methanone [Example 272]	1.53 Fold
COC(=O)[C@@H](NC(=O)c1nn(CCCC(C)F)c2ccccc12)C(C)C (stereo partly drawn) [Example 268, methyl (1-(4-fluoropentyl)-1H-indazole-3-carbonyl)-1-valinate]	1.55 Fold

Same assay, conditions: Homo sapiens, COLO 205, 48 h, MHC-I expression, COLO 205 cells, compounds at 35 μM, 48 hours, flow cytometry (W6/32); read-out: Induction Fold

Compound	fold induction at 35 µM
CCCCCn1cc(C(=O)Oc2cncc3ccccc23)c2ccccc21 [Example 52, isoquinolin-4-yl 1-pentyl-1H-indole-3-carboxylate]	2.98
CCCCCCC(C)(C)c1cc(O)c2c(c1)OC(C)(C)[C@@H]1CC=C(CO)C[C@@H]21 [Example 378, 3-(1,1′-dimethylheptyl)-6aR,7,10,10aR-tetrahydro-1-hydroxy-6,6-dimethyl-6H-dibenzo[b,d]pyran-9-methanol]	0.21
CCC(C)n1cc(C(=O)c2ccc3ccccc3c2)c2ccccc21 (stereo not drawn) [Example 350, (1-(sec-butyl)-1H-indol-3-yl)(naphthalen-2-yl)-methanone]	1.08
CCCCCn1nc(C(=O)N[C@H](C(N)=O)C(C)C)c2ccccc21 [Example 100, (S)-N-(1-amino-3-methyl-1-oxobutan-2-yl)-1-pentyl-1H-indazole-3-carboxamide]	2.43
CN1CCCCC(Cn2cc(C(=O)c3cccc4ccccc34)c3ccccc32)C1 (stereo not drawn) [Example 6, (1-((1-methylazepan-3-yl)methyl)-1H-indol-3-yl)(naphthalen-1-yl)methanone]	5.6
COc1cccc(CC(=O)c2cn(CCC3CCCCC3)c3ccccc23)c1 [Example 42, 1-(1-(2-cyclohexylethyl)-1H-indol-3-yl)-2-(3-methoxyphenyl)ethanone]	3.07
CCCCCn1nc(C(=O)N[C@H](C(N)=O)[C@@H](C)CC)c2ccccc21 (single isomer, unassigned) [Example 26]	3.49
O=C(c1cccnc1)c1cn(CCCCCF)c2ccccc12 [Example 116, (1-(5-fluoropentyl)-1H-indol-3-yl)(pyridin-3-yl)methanone, monohydrochloride]	2.34
CCCCCn1cc(C(=O)c2ccc(Br)c3ccccc23)c2ccccc21 [Example 205, (4-bromo-1-naphthalenyl)(1-pentyl-1H-indol-3-yl)-methanone]	1.86
CCCCCn1cc(C(=O)Oc2ccc3cnccc3c2)c2ccccc21 [Example 53, isoquinolin-6-yl 1-pentyl-1H-indole-3-carboxylate]	2.97
O=C(c1cn(CCCCCF)c2ccccc12)C12CC3CC(CC(C3)C1)C2 [Example 160, [1-(5-fluoropentyl)-1H-indol-3-yl]tricyclo[3.3.1.13,7]dec-1-yl-methanone]	2.06
CCCCCn1nc(C(=O)Nc2cccc3ccccc23)c2ccccc21 [Example 224, N-1-naphthalenyl-1-pentyl-1H-indazole-3-carboxamide]	1.75
O=C(Oc1ccc2ncccc2c1)c1cn(CCCCCF)c2ccccc12 [Example 30, quinolin-6-yl 1-(5-fluoropentyl)-1H-indole-3-carboxylate]	3.4
CN1CCCCC1Cn1cc(C(=O)C23CC4CC(CC(C4)C2)C3)c2ccccc21 (stereo not drawn) [Example 68, [1-[(1-methyl-2-piperidinyl)methyl]-1H-indol-3-yl]tricyclo[3.3.1.13,7]dec-1-yl-methanone]	2.72
O=C(c1cn(CCCCCF)c2ccccc12)N1CCCC1 [Example 215, (1-(5-fluoropentyl)-1H-indol-3-yl)(pyrrolidin-1-yl)methanone]	1.8
O=C(c1ccc(F)c2ccccc12)c1cn(CCCCCF)c2ccccc12 [Example 112, (4-fluoro-1-naphthalenyl)[1-(5-fluoropentyl)-1H-indol-3-yl]-methanone]	2.37
CCCCCn1cc(C(=O)N[C@H](C(=O)OC)C(C)C)c2ccccc21 [Example 328, N-[(1-pentyl-1H-indol-3-yl)carbonyl]-L-valine, methyl ester]	1.24
CCCCCn1cc(C(=O)Nc2ccc3ccccc3c2)c2ccccc21 [Example 349, N-2-naphthalenyl-1-pentyl-1H-indole-3-carboxamide]	1.1
Cc1c(C(=O)c2ccccc2)c(N)c(-c2ccccc2)n1Cc1ccc(Cl)cc1 [Example 27, [4-amino-1-[(4-chlorophenyl)methyl]-2-methyl-5-phenyl-1H-pyrrol-3-yl]phenyl-methanone]	3.43
CCCCCn1cc(C(=O)c2c(Cl)ccc3ccccc23)c2ccccc21 [Example 75, (2-chloronaphthalen-1-yl)(1-pentyl-1H-indol-3-yl)methanone]	2.65
O=C(Oc1ccc2ccncc2c1)c1cn(CC2CCCCC2)c2ccccc12 [Example 254, isoquinolin-7-yl 1-(cyclohexylmethyl)-1H-indole-3-carboxylate]	1.6

Compound	fold induction at 35 µM
CC(F)CCCn1cc(C(=O)C2C(C)(C)C2(C)C)c2ccccc21 (stereo not drawn) [Example 235, (1-(4-fluoropentyl)-1H-indol-3-yl)(2,2,3,3-tetramethylcyclopropyl)methanone]	1.7
C=C(C)[C@@H]1CCC(C)=C[C@H]1C1=C(O)C(=O)C(CCCCC)=CC1=O [Example 377, 3-hydroxy-2-[(1R,6R)-3-methyl-6-(1-methylethenyl)-2-cyclohexen-1-yl]-5-pentyl-2,5-cyclohexadiene-1,4-dione]	0.3
COC(=O)[C@@H](NC(=O)c1ccc2c(c1)c1ccccc1n2CC1CCCCC1)C(C)(C)C [Example 239, methyl (S)-2-(9-(cyclohexylmethyl)-9H-carbazole-3-carboxamido)-3,3-dimethylbutanoate]	1.69
O=C(Oc1cccc2ccncc12)c1cn(CCCCCF)c2ccccc12 [Example 16, isoquinolin-8-yl 1-(5-fluoropentyl)-1H-indole-3-carboxylate]	4.19
CCCCC(F)Cn1cc(C(=O)c2cccc3ccccc23)c2ccccc21 (stereo not drawn) [Example 207, (1-(2-fluorohexyl)-1H-indol-3-yl)(naphthalen-1-yl)methanone]	1.85
O=C(c1ccc2c(c1)c1ccccc1n2CCCCCF)c1cccc2ccccc12 [Example 318, (9-(5-fluoropentyl)-9H-carbazol-3-yl)(naphthalen-1-yl)methanone]	1.31
O=C(Oc1cccc2ncccc12)c1cn(CCCCCF)c2ccccc12 [Example 158, quinolin-5-yl 1-(5-fluoropentyl)-1H-indole-3-carboxylate]	2.07
CC1(C)C(C(=O)c2cn(Cc3ccc(F)cc3)c3ccccc23)C1(C)C [Example 62, (1-(4-fluorobenzyl)-1H-indol-3-yl)(2,2,3,3-tetramethylcyclopropyl)methanone]	2.79
CCCCCn1cc(C(=O)Cc2cccc(Cl)c2)c2ccccc21 [Example 86, 2-(3-chlorophenyl)-1-(1-pentyl-1H-indol-3-yl)-ethanone]	2.51
CCCC(F)Cn1cc(C(=O)c2ccc(C)c3ccccc23)c2ccccc21 (stereo not drawn) [Example 359, (1-(2-fluoropentyl)-1H-indol-3-yl)(4-methylnaphthalen-1-yl)methanone]	1
CCC(F)CCn1cc(C(=O)Nc2cccc3ccccc23)c2ccccc21 (stereo not drawn) [Example 338, 1-(3-fluoropentyl)-N-(naphthalen-1-yl)-1H-indole-3-carboxamide]	1.19
CCCCCn1cc(C(=O)NCc2ccccc2)c2ccccc21 [Example 91, 1-pentyl-N-(phenylmethyl)-1H-indole-3-carboxamide]	2.48
CCCCCn1cc(C(=O)Oc2cccc3ccccc23)c2ccccc21 [Example 249, naphthalen-1-yl 1-pentyl-1H-indole-3-carboxylate]	1.63
O=C(c1cccc2ccccc12)c1cn(CCCC2CO2)c2ccccc12 (stereo not drawn) [Example 156, naphthalen-1-yl(1-(3-(oxiran-2-yl)propyl)-1H-indol-3-yl)methanone]	2.07
CCCCCn1cc(C(=O)c2cc(CC)cc3ccccc23)c2ccccc21 [Example 264, (3-ethyl-1-naphthalenyl)(1-pentyl-1H-indol-3-yl)-methanone]	1.56
O=C(Oc1ccc2ccncc2c1)c1cn(CCCCCF)c2ccccc12 [Example 340, isoquinolin-7-yl 1-(5-fluoropentyl)-1H-indole-3-carboxylate]	1.18
O=C(Nc1cccc2cccnc12)c1nn(CCCCCF)c2ccccc12 [Example 166, 1-(5-fluoropentyl)-N-(quinolin-8-yl)-1H-indazole-3-carboxamide]	2.01
O=C(Oc1ccc2cnccc2c1)c1cn(CCCCCF)c2ccccc12 [Example 218, isoquinolin-6-yl 1-(5-fluoropentyl)-1H-indole-3-carboxylate]	1.78
CCCCCn1cc(C(=O)Oc2cccc3ccncc23)c2ccccc21 [Example 17, isoquinolin-8-yl 1-pentyl-1H-indole-3-carboxylate]	4.11
CCCCn1cc(C(=O)c2ccc(OC)cc2)c2ccccc21 [Example 282, (4-methoxyphenyl)(1-butyl-1H-indol-3-yl)-methanone]	1.47

Same assay, conditions: MHC-I expression, COLO 205 cells, compounds at 35 μM, 48 hours, flow cytometry (W6/32)

Compound	Induction Fold
CCCCCn1nc(C(=O)N[C@H](C(=O)OC)C(C)C)c2ccccc21 [Example 183, N-[(1-pentyl-1H-indazol-3-yl)carbonyl]-1-valine, methyl ester]	1.91 Fold
CN1CCCCC(n2cc(C(=O)C34CC5CC(CC(C5)C3)C4)c3ccccc32)C1 (stereo not drawn) [Example 93, (3,5,7)-adamantan-1-yl(1-(1-methylazepan-3-yl)-1H-indol-3-yl)methanone]	2.46 Fold
